The assay concerns h-Tel quadruplex DNA sequence 5'-d[AGGG(TTAGGG)3]-3'. Nature of the assay: SPR binding to quadruplex DNA. The arrangement: species or system human. On the procedure:
Oligonucleotides 5’-biotin-d [AG3 (T2AG3)3] quadruplex and 5’-biotin-CGA3T3C(CT)2GA3T3CG were purchased from Midland Certified Reagent Company (Midland, TX). Purification of DNA, preparation of solutions, collection of data, and analysis of results were conducted according to methods adopted in an earlier study.
This technique takes advantage of the refractive index change elicits by the binding of the drug with the h-Tel quadruplex DNA sequence 5’-d[AGGG(TTAGGG)3]-3’ or an alternating hairpin duplex sequence immobilized on a sensor chip surface.
On the technique in general: SPR reads the build-up and loss of mass on a sensor chip optically.

One molecule from article PMC4193996 (Journal of Experimental & Clinical Cancer Research : CR, 2014) can be followed below.

For the molecule `CC(=O)NCC#Cc1ccc2c3cccc4c3c([n+](C)c2c1)-c1ccccc1N4C` [Compound 8], the “Quadruplex DNA affinity K” value was 14,2 x10^6 M^−1. For the same molecule, where the note is “quadruplex vs duplex affinity”, the Quadruplex/duplex ratio is listed as 15,8.
